The target of assay [1] is ligand binding domain of thyroid hormone receptor beta (Homo sapiens (Human), UniProt P10828). Description: Thyroid hormone receptor TR-FRET binding assay (TRβ LBD). The following applies: TRβ LBD 2 nM. The method, then:
(§1) TR-FRET binding assay was used to test representative compounds herein.
(§2) The ligand binding domain of thyroid hormone receptor alpha and the ligand binding domain of thyroid hormone receptor beta with GST tag were purchased from Invitrogen. Biotin-SRC2-2 coactivator peptide was purchased from Sangon Biotech, Europium anti-GST and Streptavidin-D2 was from Cisbio.
(§3) Five microliters of 4× compound serial dilution was added in the 384-well plate, white, low volume, round-bottom assay plate. […] Centrifuge the assay plates at 1000 g for 1 min and incubate 1 hr at RT, protected from light. […] Calculate EC50 by fitting % Activity values and log of compound concentrations to nonlinear regression (dose response—variable slope) with Graphpad 5.0.
In general terms: In TR-FRET formats the signal depends on donor and acceptor labels being close together.

Assay [2] deals with ligand binding domain of thyroid hormone receptor alpha (Homo sapiens (Human), UniProt P10827). Description: Thyroid hormone receptor TR-FRET binding assay (TRα LBD). The following applies: TRα LBD 4 nM. The procedure:
as §1, §2, §3

For assay [3], the target named is TRβ-GAL4 binding domain chimeric receptors (Homo sapiens (Human), UniProt P10828). The assay is described as follows: Thyroid hormone receptor cell assay (GAL4 luciferase reporter in HEK293-LUC cells). In kind it is cell-based. An excerpt: TRα-LBD or TRβ-LBD, coding sequence was inserted into pBIND expression vector (Promega, E1581) to express TRβ-GAL4 binding domain chimeric receptors. This expression vector was transfected into HEK293-LUC host cells with reporter vector (pGL4.35 which carry a stably integrated GAL4 promoter driven luciferase reporter gene). Upon agonist binding to the corresponding TRa-GAL4 or TRb-GAL4 chimeric receptor, the chimeric receptor binds to the GAL4 binding sites and stimulates the reporter gene.
Sequence of TRβ-GAL4 binding domain chimeric receptors (P10828 217-461, stated change not applied): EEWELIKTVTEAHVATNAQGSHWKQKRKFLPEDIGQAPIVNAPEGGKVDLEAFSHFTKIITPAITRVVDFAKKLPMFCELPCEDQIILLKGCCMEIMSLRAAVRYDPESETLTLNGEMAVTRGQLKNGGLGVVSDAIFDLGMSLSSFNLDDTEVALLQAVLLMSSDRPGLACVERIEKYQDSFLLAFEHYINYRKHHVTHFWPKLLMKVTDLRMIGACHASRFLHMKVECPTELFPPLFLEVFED
Seed 2.5×10^6 HEK293-LUC cells into a 60 mm dish and incubated for 16 h at 37° C. under 5% CO2 atmosphere. Mix 12 microliters of Lipo LTX reagent in 250 microliters of Opti-MEM Medium by inversion. Mix 6 ug of DNA in 250 uL of Opti-MEM medium, then add 6 uL of Lipo PLUS Reagent. Add diluted DNA to each tube of diluted Lipo LTX Reagent (1:1 ratio), and mix by Pipettor and incubate at room temperature for 10 min. The reagent mixture was added to a 60 mm dish, incubated with cells for 4-7 h at 37 degrees under 5% CO2 atmosphere.
75 nL compound was added into 384 well assay plate using ECHO550 and then add HEK293-LUC cells (transfected, 17,000 cells/well) into the plate using phenol red-free DMEM containing 5% charcoal/dextran-treated FBS and incubated for 16-20 h at […] under 5% CO2 atmosphere. Add 25 uL of Steady-Glo Luciferase Assay Reagent into each well. Shake for 5 min and then record the luminescence value on Envision 2104 plate reader.

SMILES strings stand for the structures.

Sequence of ligand binding domain of thyroid hormone receptor beta (P10828 217-461): as the sequence (P10828 217-461, stated change not applied) above
Sequence of ligand binding domain of thyroid hormone receptor alpha (P10827 other isoform, or with tags, fused parts or gaps del 1-162, other chains not shown): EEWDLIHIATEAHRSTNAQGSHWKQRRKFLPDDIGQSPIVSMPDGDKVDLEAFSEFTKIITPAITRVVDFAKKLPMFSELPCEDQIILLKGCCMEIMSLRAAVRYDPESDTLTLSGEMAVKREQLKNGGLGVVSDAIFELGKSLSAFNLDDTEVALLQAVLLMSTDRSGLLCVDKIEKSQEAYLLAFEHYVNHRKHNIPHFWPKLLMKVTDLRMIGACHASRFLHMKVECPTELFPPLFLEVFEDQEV

The compound `N#Cc1nn(-c2cc(Cl)c(Oc3ccc4[nH]cc(C(N)=O)c4c3)c(Cl)c2)c(=O)[nH]c1=O` [Compound 87] registered an EC50 in assay [1] of 1.21 µM.
As to `N#Cc1nn(-c2cc(Cl)c(Oc3cc(CCc4ccccc4)c(=O)[nH]n3)c(Cl)c2)c(=O)[nH]c1=O` [Compound 26], the EC50 in assay [2] and in assay [1] was above 10 µM throughout.
Regarding `N#Cc1nn(-c2cc(Cl)c(Oc3cc(C4CC4)c(=O)[nH]n3)c(Cl)c2)c(=O)[nH]c1=O` [Compound 1], the EC50 in assay [2] worked out at 5.76 µM; in assay [1] it was 0.54 µM; in assay [3], 7.1 µM.
Turning to `CC(C)c1cc(Oc2c(Cl)cc(CCP(=O)(O)O)cc2Cl)n[nH]c1=O` [Compound 70], the EC50 worked out at 90 µM in assay [2] and 42.4 µM in assay [1].
The matching figures for `Cc1nn(-c2cc(Cl)c(Oc3cc(Cc4ccc(O)cc4)c(=O)[nH]n3)c(Cl)c2)c(=O)[nH]c1=O` [Compound 53]: 1.37 µM and 0.01 µM.
The like results for `Cc1nn(-c2cc(Cl)c(Oc3cc(C(C)C4CCCCC4)c(=O)[nH]n3)c(Cl)c2)c(=O)[nH]c1=O` (centres unmarked) [Compound 61] were, in that order, 15.6 µM and 0.15 µM.
As to `CC(C)c1n[nH]c2ccc(Oc3c(Cl)cc(-n4nc(C#N)c(=O)[nH]c4=O)cc3Cl)cc12` [Compound 90], the EC50 in assay [1] turned out to be 0.18 µM; in assay [3], 2.76 µM.
Regarding `CC(C)c1cc(Oc2c(Cl)cc(-n3nc(C(C)C)c(=O)[nH]c3=O)cc2Cl)n[nH]c1=O` [Compound 38], the EC50 in assay [2] and in assay [1] was above 90 µM each time.
As for `Cc1nn(-c2cc(Br)c(Oc3cc(C(=O)c4ccccc4)c(=O)[nH]n3)c(Br)c2)c(=O)[nH]c1=O` [Compound 78], the EC50 was 26.9 µM in assay [2] and 0.81 µM in assay [1].
The matching figures for `Cc1nn(-c2cc(Cl)c(Oc3cc([C@H](C)c4ccccc4)c(=O)[nH]n3)c(Cl)c2)c(=O)[nH]c1=O` (single isomer, unassigned) [Compound 72]: 90 µM and 3.47 µM.
In assay [1], `CC(C)c1c[nH]c2ncc(Oc3c(Cl)cc(-n4nc(C#N)c(=O)[nH]c4=O)cc3Cl)cc12` [Compound 84] returned an EC50 of 0.66 µM.
Regarding `Cc1nn(-c2cc(Br)c(Oc3cc(C4CCC4)c(=O)[nH]n3)c(Br)c2)c(=O)[nH]c1=O` [Compound 13], the EC50 came to 1.35 µM in assay [2] and 0.12 µM in assay [1].
As to `CC(O)(CO)c1ccc(Cc2cc(Oc3c(Cl)cc(-n4nc(C#N)c(=O)[nH]c4=O)cc3Cl)n[nH]c2=O)cc1` (centres unmarked) [Compound 86], the EC50 in assay [1] was above 90 µM.
Turning to `N#Cc1nn(-c2cc(Cl)c(Oc3cc(CC4CCC(O)C4)c(=O)[nH]n3)c(Cl)c2)c(=O)[nH]c1=O` (centres unmarked) [Compound 51], the EC50 in assay [2] and in assay [1] was above 90 µM in each case.
For the compound `CC(=O)N1CCC(c2cc(Oc3c(Cl)cc(-n4nc(C#N)c(=O)[nH]c4=O)cc3Cl)n[nH]c2=O)CC1` [Compound 19], the half-maximal effective concentration (EC50) in assay [2] and in assay [1] was above 90 µM throughout.
Take `CC(c1ccccc1)c1cc(Oc2c(Cl)cc(-n3nc(C#N)c(=O)[nH]c3=O)cc2Cl)n[nH]c1=O` (single isomer, unassigned) [Compound 89]: in assay [1], the EC50 was found to be 0.36 µM.
In assay [1], `CC(c1ccccc1)c1cc(Oc2c(Cl)cc(-n3nc(C#N)c(=O)[nH]c3=O)cc2C(F)(F)F)n[nH]c1=O` (single isomer, unassigned) [Compound 95] showed an EC50 of 0.24 µM.
In the case of `N#Cc1nn(-c2cc(Cl)c(Sc3cc(Cc4ccccc4)c(=O)[nH]n3)c(Cl)c2)c(=O)[nH]c1=O` [Compound 80], the figures for the EC50 in assay [2] and in assay [1] were 90 µM and 2.33 µM, respectively.
Regarding `N#Cc1nn(-c2cc(Cl)c(Oc3cc(C4CCN(Cc5ccccc5)CC4)c(=O)[nH]n3)c(Cl)c2)c(=O)[nH]c1=O` [Compound 77], the EC50 in assay [2] and in assay [1] was 90 µM each time.
In the case of `N#Cc1nn(-c2cc(Cl)c(Oc3cc(CC4CCC(O)CC4)c(=O)[nH]n3)c(Cl)c2)c(=O)[nH]c1=O` (centres unmarked) [Compound 50], the figures for the concentration for a half-maximal effect (EC50) in assay [2] and in assay [1] were above 90 µM and 8.8 µM, respectively.
The like results for `Cc1cc(-n2nc(C#N)c(=O)[nH]c2=O)c(F)c(C)c1Oc1cc(C(C)C)c(=O)[nH]n1` [Compound 45] were, in that order, above 10 µM and 4.16 µM.
The like results for `N#Cc1nn(-c2cc(Cl)c(Oc3cc(Cc4cccc(O)c4)c(=O)[nH]n3)c(Cl)c2)c(=O)[nH]c1=O` [Compound 34] were, in that order, above 90 µM and above 90 µM.
`CC(c1cc(Oc2c(Cl)cc(-n3nc(C#N)c(=O)[nH]c3=O)cc2C(F)(F)F)n[nH]c1=O)C1CCCCC1` (single isomer, unassigned) [Compound 99] registered an EC50 in assay [3] of 18.5 µM.
For `N#Cc1nn(-c2cc(Cl)c(Oc3cc(Cc4ccccc4)c(=O)[nH]n3)c(C(F)(F)F)c2)c(=O)[nH]c1=O` [Compound 64], the EC50 in assay [2] was 90 µM; in assay [1], 0.24 µM.
For the compound `Cc1cc(OCP(=O)(O)O)cc(C)c1Cc1cc(C(C)C)c(=O)[nH]n1` [Compound 85], in assay [1], the EC50 is above 90 µM.
Turning to `CC(C)c1nn(-c2c(Cl)cc(-n3nc(C#N)c(=O)[nH]c3=O)cc2Cl)c2ccc(O)cc12` [Compound 91], the figures for the EC50 in assay [1] and in assay [3] were 0.43 µM and 4.35 µM, respectively.
On to `Cc1nn(-c2cc(Cl)c(Oc3cc(C(C)C4CCCCC4)c(=O)[nH]n3)c(Cl)c2)c(=O)[nH]c1=O` (single isomer, unassigned) [Compound 76], for which the EC50 in assay [2] amounted to 43.4 µM; in assay [1], 1.05 µM.
In turn, `CC(c1ccccc1)c1cc(Oc2c(Cl)cc(-n3nc(C#N)c(=O)[nH]c3=O)cc2C(F)(F)F)n[nH]c1=O` (single isomer, unassigned) [Compound 96] yielded an EC50 in assay [1] of 0.84 µM.
With `COc1ccccc1Cc1cc(Oc2c(Cl)cc(-n3nc(C)c(=O)[nH]c3=O)cc2Cl)n[nH]c1=O` [Compound 69], the EC50 in assay [2] is 90 µM; in assay [1] it was 2.62 µM.
As to `CC(c1ccccc1)c1cc(Oc2c(Cl)cc(-n3nc(C#N)c(=O)[nH]c3=O)cc2C(F)(F)F)n[nH]c1=O` (racemic) [Compound 94], in assay [1], the midpoint of the response, the EC50, lay at 0.5 µM.
As for `N#Cc1nn(-c2cc(Cl)c(Oc3cc(Cc4ccccc4O)c(=O)[nH]n3)c(Cl)c2)c(=O)[nH]c1=O` [Compound 57], the EC50 in assay [2] was found to be 90 µM; in assay [1], 1.63 µM.
The matching figures for `Cc1nn(-c2cc(Cl)c(Oc3cc(CC4CCC(O)CC4)c(=O)[nH]n3)c(Cl)c2)c(=O)[nH]c1=O` (centres unmarked) [Compound 55]: 8.57 µM and 1.07 µM.
The matching figures for `N#Cc1nn(-c2ccc(Oc3cc(C4CC4)c(=O)[nH]n3)c(Cl)c2)c(=O)[nH]c1=O` [Compound 6]: above 10 µM and above 10 µM.
On to `CC(c1cc(Oc2c(Cl)cc(-n3nc(C#N)c(=O)[nH]c3=O)cc2Cl)n[nH]c1=O)C1CCCCC1` (single isomer, unassigned) [Compound 92], for which the EC50 was 0.29 µM in assay [1] and 13.6 µM in assay [3].
As for `CC(c1cc(Oc2c(Cl)cc(-n3nc(C#N)c(=O)[nH]c3=O)cc2C(F)(F)F)n[nH]c1=O)C1CCCCC1` (single isomer, unassigned) [Compound 98], in assay [3], the EC50 was determined as 5.5 µM.
Regarding `N#Cc1nn(-c2cc(Cl)c(Oc3cc(-c4ccccc4)c(=O)[nH]n3)c(Cl)c2)c(=O)[nH]c1=O` [Compound 24], the EC50 in assay [2] and in assay [1] was above 10 µM throughout.
Consider `Cc1nn(-c2cc(Cl)c(Oc3cc(Cc4ccc(Cl)cc4)c(=O)[nH]n3)c(Cl)c2)c(=O)[nH]c1=O` [Compound 49], for which the EC50 in assay [2] is 3.2 µM; in assay [1], 0.23 µM.
The like results for `CC(C)c1cc(Oc2c(Cl)cc(-n3nc(C4CC4)c(=O)[nH]c3=O)cc2Cl)n[nH]c1=O` [Compound 36] were, in that order, above 90 µM and 11.7 µM.
The matching figures for `Cc1nn(-c2cc(Cl)c(Oc3cc(CC4CCCC4)c(=O)[nH]n3)c(Cl)c2)c(=O)[nH]c1=O` [Compound 59]: 1.17 µM and 0.19 µM.
`CC(c1cc(Oc2c(Cl)cc(-n3nc(C#N)c(=O)[nH]c3=O)cc2C(F)(F)F)n[nH]c1=O)C1CCCCC1` (racemic) [Compound 97] displayed an EC50 in assay [1] of 0.26 µM.
Still for that read-out and setting: in the case of `CC(c1cc(Oc2c(Cl)cc(-n3nc(C#N)c(=O)[nH]c3=O)cc2Cl)n[nH]c1=O)C1CCCCC1` (single isomer, unassigned) [Compound 93] it was 1.56 µM; in that of `CC(c1ccccc1)c1cc(Oc2c(Cl)cc(-n3nc(C#N)c(=O)[nH]c3=O)cc2Cl)n[nH]c1=O` (single isomer, unassigned) [Compound 88], 3.21 µM.
Regarding `Cc1nn(-c2cc(Cl)c(Oc3cc(Cc4cccc(F)c4)c(=O)[nH]n3)c(Cl)c2)c(=O)[nH]c1=O` [Compound 68], the figures for the EC50 in assay [2] and in assay [1] were 7.82 µM and 0.78 µM, respectively.

The EC50 is the concentration giving half of the maximal effect. A low value points to higher potency in that assay.

(Values after US12391677B2, “Thyroid hormone receptor agonists” (INVENTISBIO CO., LTD., priority 2018, dated 2025).)
